Source: ChEMBL document CHEMBL3751775, “Identification of B. anthracis N(5)-carboxyaminoimidazole ribonucleotide mutase (PurE) active site binding compounds via fragment library screening” (Bioorg Med Chem, 2016)

Tests used:
[1] = Binding affinity to Bacillus anthracis PurE by intrinsic tryptophan fluorescence analysis
[2] = Binding affinity to Bacillus anthracis PurE by Surface Plasmon Resonance analysis
[3] = Binding affinity to Escherichia coli PurE by Surface Plasmon Resonance analysis
[4] = system: Bacillus anthracis; experiment: Inhibition of Bacillus anthracis PurE using CAIR as substrate at 100 uM preincubated for 5 mins followed by substrate addition by UV spectroscopic analysis
[5] = system: Bacillus anthracis; experiment: Inhibition of Bacillus anthracis PurE using CAIR as substrate at 25 uM preincubated for 5 mins followed by substrate addition by UV spectroscopic analysis
[6] = Aqueous solubility of the compound; format: physicochemical

NC(=S)N1CCc2ccccc21
Kd ([1]; read-out: Kd): 35.7 µM | Kd [2]: 35.3 µM

Nc1nn2c(-c3ccccc3)nnc2s1
Kd ([1]; read-out: Kd): 604 µM | Kd [2]: 121 µM

Nc1cncn1[C@@H]1O[C@H](COP(=O)(O)O)[C@@H](O)[C@H]1O
Kd ([1]; read-out: Kd): 283 µM

COc1ccc2ncc(N)cc2c1
Kd ([1]; read-out: Kd): 73.8 µM | Kd [2]: 261 µM

Cc1ccc(C(N)c2ccncc2)cc1 (stereo not drawn)
Kd [1]: Not Active | Kd [2]: 707 µM

Oc1cc(Cl)c(Cl)cc1O
Kd ([1]; read-out: Kd): 182 µM | Kd [2]: 103 µM

Nc1c([N+](=O)[O-])ncn1[C@@H]1O[C@H](COP(=O)(O)O)[C@@H](O)[C@H]1O
Kd [3]: 86 nM

NCc1cc(-c2ccccc2Cl)on1
Kd ([1]; read-out: Kd): 402 µM | Kd [2]: 444 µM

Cc1cnc(NC(=O)c2ccoc2C)s1
Kd ([1]; read-out: Kd): 39.6 µM | Kd [2]: 20.3 µM

Cc1cc(C(=O)Nc2cccc(F)c2)no1
Kd ([1]; read-out: Kd): 95.4 µM | Kd [2]: 79.8 µM

Cc1ccc(C(=S)c2nnns2)cc1
Kd ([1]; read-out: Kd): 81.3 µM | Kd [2]: 60.8 µM | inhibition [4]: 36%

CCc1ccc(C(=O)Nc2nncs2)s1
Kd ([1]; read-out: Kd): 19.8 µM | Kd [2]: 13.5 µM | inhibition [5]: 49%

O=C(O)c1ccc(O)c(O)c1 [PROTOCATECHUIC ACID]
Kd [2]: 274 µM | solubility [6]: > 1200 µM

O=C(O)c1cc2cc(F)ccc2[nH]1 [5-FLUOROINDOLE-2-CARBOXYLIC ACID]
Kd [2]: 234 µM

CCOc1cc(CO)c(Br)cc1OC
Kd ([1]; read-out: Kd): 367 µM | Kd [2]: 157 µM

COc1ccc(-c2cc(N)[nH]n2)cc1
Kd ([1]; read-out: Kd): 214 µM | Kd [2]: 149 µM

CCOc1ccccc1C(=S)N1CCOCC1
Kd ([1]; read-out: Kd): 61.6 µM | Kd [2]: 73 µM
